Values quoted from earlier work in US7074832B2, “Compositions containing antimicrobials and urea for the treatment of dermatological disorders and methods for their use” (Bradley Pharmaceuticals, Inc., priority 2001, dated 2006).
≈ marks a conversion by molar mass, not a printed value.

Experiments:
cyclooxygenase = conditions: qualitative statement in the description

SMILES	solubility in alcohol (alcohol)	solubility in water (water, 20° C.)	cyclooxygenase activity inhibition (cyclooxygenase)
Cc1ncc([N+](=O)[O-])n1CCO [Metronidazole, 2-methyl-5-nitro-1H-imidazole-1-ethanol]	slightly soluble	10000 µg/mL (≈ 58.4 mM)	–
Cc1c(C)c2c(c(C)c1O)CC[C@@](C)(CCC[C@H](C)CCC[C@H](C)CCCC(C)C)O2 [alpha tocopherol]	–	–	not
Cc1c(O)cc2c(c1C)O[C@](C)(CCC[C@H](C)CCC[C@H](C)CCCC(C)C)CC2 [gamma tocopherol]	–	–	inhibit cyclooxygenase activity
Cc1c(O)cc2c(c1C)OC(C)(CCC(=O)O)CC2 (stereo not drawn) [gamma-CEHC, 2,7,8-trimethyl-2-(beta-carboxyethyl)-6-hydroxychroman]	–	–	inhibit cyclooxygenase activity
